Several values for one entry are separate records, joined by “and”; a condition that tells them apart may be missing. Equal values may be shown once. ± gives the expanded uncertainty stated by the source.
Legend:
[1] = for viscosity / mass density: 101 kPa, Liquid; for viscosity: Falling or rolling sphere viscometry; for mass density: Vibrating tube method
[2] = xn = mol fraction of the nth substance listed; settings: 101 kPa, Liquid, x2 = 0; for viscosity: Falling or rolling sphere viscometry; for mass density: Vibrating tube method

CCOS(=O)(=O)[O-].CC[N+]1(C)CCCCC1 [1-ethyl-1-methylpiperidinium ethyl sulfate]
[1]
Settings | mass density [kg/m3] | viscosity [mPa·s]
298.15 K | 1181.33 ± 2.7 | 1821 ± 360
303.15 K | 1178.23 ± 2.7 | 1186 ± 220
308.15 K | 1175.1 ± 2.7 | 795.7 ± 140
313.15 K | 1171.79 ± 2.6 | 549.9 ± 97
318.15 K | 1168.85 ± 2.6 | 391.8 ± 68
323.15 K | 1165.73 ± 2.6 | 285.8 ± 48
328.15 K | 1162.62 ± 2.6 | 212.6 ± 35
333.15 K | 1159.54 ± 2.6 | 162.5 ± 27
338.15 K | 1156.56 ± 2.6 | 126.1 ± 21
343.15 K | 1153.58 ± 2.6 | 99.87 ± 16

CCOS(=O)(=O)[O-].CC[N+]1(C)CCCC1 [1-ethyl-1-methylpyrrolidinium ethyl sulfate]
[1]
Settings | mass density [kg/m3] | viscosity [mPa·s]
313.15 K | 1176.31 ± 2.7 | 78.32 ± 13
318.15 K | 1173.63 ± 2.6 | 64.72 ± 10
323.15 K | 1170.95 ± 2.6 | 53.51 ± 8.6
328.15 K | 1168.27 ± 2.6 | 44.82 ± 7.2
333.15 K | 1165.59 ± 2.6 | 37.95 ± 6.1
338.15 K | 1162.91 ± 2.6 | 32.87 ± 5.3
343.15 K | 1160.23 ± 2.6 | 29.23 ± 4.7

Settings | Normal melting temperature [°C]
[1], Crystal, visual observation | 36.92 ± 0.5

CCOS(=O)(=O)[O-].CC[N+]1(C)CCOCC1 [4-ethyl-4-methylmorpholinium ethyl sulfate]
[1]
Settings | mass density [kg/m3] | viscosity [mPa·s]
298.15 K | 1252.26 ± 3 | –
303.15 K | 1249.05 ± 3 | –
308.15 K | 1245.86 ± 3 | –
313.15 K | 1242.67 ± 3 | 2426 ± 480
318.15 K | 1239.51 ± 3 | 1677 ± 320
323.15 K | 1236.35 ± 3 | 1129 ± 210
328.15 K | 1233.2 ± 2.9 | 779.3 ± 140
333.15 K | 1230.06 ± 2.9 | 552.3 ± 98
338.15 K | 1226.93 ± 2.9 | 400.8 ± 69
343.15 K | 1223.81 ± 2.9 | 297.3 ± 50

O [water]
[1]
Settings | mass density [kg/m3] | viscosity
298.15 K | – | 0.89 ± 0.14 mPa·s
303.15 K | – | 0.808 ± 0.13 mPa·s
308.15 K | – | 0.74 ± 0.12 mPa·s
313.15 K | 992.15 ± 0.2 | 0.681 ± 0.11 mPa·s
318.15 K | – | 0.63 ± 0.1 mPa·s
323.15 K | 987.93 ± 0.2 | 0.593 ± 0.095 mPa·s
328.15 K | 985.69 ± 0.2 | 0.56 ± 0.09 mPa·s
333.15 K | 983.17 ± 0.2 | 0.528 ± 0.085 mPa·s
338.15 K | 980.3 ± 0.2 | 0.519 ± 0.083 mPa·s and 0.5 ± 0.08 mPa·s
343.15 K | 978.1 ± 0.2 | 0.51 ± 0.082 mPa·s and 0.473 ± 0.076 mPa·s

O [water] + CCOS(=O)(=O)[O-].CC[N+]1(C)CCCC1
[2]
Settings | mass density [kg/m3] | viscosity [mPa·s]
313.15 K | 992.15 ± 0.2 | 0.681 ± 0.11
318.15 K | – | 0.63 ± 0.1
323.15 K | 987.93 ± 0.2 | 0.593 ± 0.095
328.15 K | 985.69 ± 0.2 | 0.56 ± 0.09
333.15 K | 983.17 ± 0.2 | 0.528 ± 0.085
338.15 K | 980.3 ± 0.2 | 0.519 ± 0.083
343.15 K | 978.1 ± 0.2 | 0.51 ± 0.082

O [water] + CCOS(=O)(=O)[O-].CC[N+]1(C)CCCCC1
[2]
Settings | mass density [kg/m3] | viscosity [mPa·s]
298.15 K | – | 0.89 ± 0.14
303.15 K | – | 0.808 ± 0.13
308.15 K | – | 0.74 ± 0.12
313.15 K | 992.15 ± 0.2 | 0.681 ± 0.11
318.15 K | – | 0.63 ± 0.1
323.15 K | 987.93 ± 0.2 | 0.593 ± 0.095
328.15 K | 985.69 ± 0.2 | 0.56 ± 0.09
333.15 K | 983.17 ± 0.2 | 0.528 ± 0.085
338.15 K | 980.3 ± 0.2 | 0.5 ± 0.08
343.15 K | 978.1 ± 0.2 | 0.473 ± 0.076

O [water] + CCOS(=O)(=O)[O-].CC[N+]1(C)CCOCC1
[2]
Settings | mass density [kg/m3] | viscosity [mPa·s]
298.15 K | – | 0.89 ± 0.14
303.15 K | – | 0.808 ± 0.13
308.15 K | – | 0.74 ± 0.12
313.15 K | 992.15 ± 0.2 | 0.681 ± 0.11
318.15 K | – | 0.63 ± 0.1
323.15 K | 987.93 ± 0.2 | 0.593 ± 0.095
328.15 K | 985.69 ± 0.2 | 0.56 ± 0.09
333.15 K | 983.17 ± 0.2 | 0.528 ± 0.085
338.15 K | 980.3 ± 0.2 | 0.5 ± 0.08
343.15 K | 978.1 ± 0.2 | 0.473 ± 0.076

From the NIST ThermoML archive (doi:10.1016/j.tca.2014.02.019)
